What all share (format): functional, cell-based
Assay [1] has as its target T1, Nuclear receptor subfamily 1 group I member 3 (Homo sapiens, UniProt Q14994).
T1 sequence (Q14994 whole entry): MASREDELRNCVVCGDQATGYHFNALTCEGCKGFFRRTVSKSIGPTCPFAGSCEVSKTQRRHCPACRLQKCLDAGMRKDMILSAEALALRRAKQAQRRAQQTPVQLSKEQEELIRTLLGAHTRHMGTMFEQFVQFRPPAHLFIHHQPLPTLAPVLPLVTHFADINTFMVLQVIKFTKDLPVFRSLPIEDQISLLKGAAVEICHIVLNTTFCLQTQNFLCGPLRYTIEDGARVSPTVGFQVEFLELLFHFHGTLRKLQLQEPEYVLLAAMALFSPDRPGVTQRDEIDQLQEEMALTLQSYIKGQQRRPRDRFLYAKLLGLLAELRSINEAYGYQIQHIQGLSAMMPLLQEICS
The experiment in a line: Agonist activity at CAR-LBD expressed in HEK293 cells assessed as Gal4-DBD interaction by cellular mammalian one hybrid assay.

For assay [2], the target named is T2, Oxysterols receptor LXR-alpha (Homo sapiens, UniProt Q13133).
T2 sequence (Q13133 whole entry): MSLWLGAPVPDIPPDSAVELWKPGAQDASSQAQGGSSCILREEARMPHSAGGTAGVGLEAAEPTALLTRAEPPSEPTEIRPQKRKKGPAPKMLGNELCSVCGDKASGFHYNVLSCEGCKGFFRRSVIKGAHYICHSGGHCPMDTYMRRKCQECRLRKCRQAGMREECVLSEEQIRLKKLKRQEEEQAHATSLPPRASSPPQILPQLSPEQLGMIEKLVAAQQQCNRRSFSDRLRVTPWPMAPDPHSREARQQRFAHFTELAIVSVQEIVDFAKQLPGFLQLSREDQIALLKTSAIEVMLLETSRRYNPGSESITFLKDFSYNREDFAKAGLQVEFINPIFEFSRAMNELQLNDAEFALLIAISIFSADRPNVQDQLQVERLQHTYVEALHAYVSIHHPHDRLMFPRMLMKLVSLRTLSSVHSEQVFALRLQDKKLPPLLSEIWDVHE
The experiment in a line: Agonist activity at LXRalpha-LBD expressed in HEK293 cells assessed as Gal4-DBD interaction by cellular mammalian one hybrid assay.

Assay [3] addresses T3, Retinoic acid receptor RXR-alpha (Homo sapiens) (UniProt P19793).
T3 sequence (whole entry): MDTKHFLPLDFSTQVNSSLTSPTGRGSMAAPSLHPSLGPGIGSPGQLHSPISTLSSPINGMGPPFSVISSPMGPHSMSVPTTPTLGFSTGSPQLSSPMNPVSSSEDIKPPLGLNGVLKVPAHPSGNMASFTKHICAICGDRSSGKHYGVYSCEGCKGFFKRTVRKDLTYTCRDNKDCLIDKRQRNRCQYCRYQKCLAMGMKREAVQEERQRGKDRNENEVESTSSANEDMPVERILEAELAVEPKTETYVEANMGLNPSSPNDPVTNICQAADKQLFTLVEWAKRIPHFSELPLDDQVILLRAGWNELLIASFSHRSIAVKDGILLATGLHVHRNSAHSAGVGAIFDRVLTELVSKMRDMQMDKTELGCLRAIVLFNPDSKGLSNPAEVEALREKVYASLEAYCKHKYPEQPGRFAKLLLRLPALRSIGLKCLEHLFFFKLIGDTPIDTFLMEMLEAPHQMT
The experiment in a line: Agonist activity at RXRalpha-LBD expressed in HEK293 cells assessed as Gal4-DBD interaction by cellular mammalian one hybrid assay relative to retinoic acid.

In assay [4] the target is T4, Retinoic acid receptor gamma (Homo sapiens, UniProt P13631).
T4 sequence (P13631 whole entry): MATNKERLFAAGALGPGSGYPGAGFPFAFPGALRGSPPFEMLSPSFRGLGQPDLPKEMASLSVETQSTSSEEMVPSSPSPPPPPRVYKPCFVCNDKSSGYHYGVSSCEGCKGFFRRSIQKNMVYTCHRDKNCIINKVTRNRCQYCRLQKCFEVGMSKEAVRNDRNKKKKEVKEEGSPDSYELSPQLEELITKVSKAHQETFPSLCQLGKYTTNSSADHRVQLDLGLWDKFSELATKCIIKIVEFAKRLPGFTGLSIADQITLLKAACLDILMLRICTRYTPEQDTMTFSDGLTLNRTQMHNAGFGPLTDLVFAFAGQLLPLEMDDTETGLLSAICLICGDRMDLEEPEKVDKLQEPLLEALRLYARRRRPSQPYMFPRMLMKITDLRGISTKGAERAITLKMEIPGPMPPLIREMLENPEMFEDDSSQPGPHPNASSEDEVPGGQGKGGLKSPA
The assay is described as follows: Agonist activity at RARgamma-LBD expressed in HEK293 cells assessed as Gal4-DBD interaction by cellular mammalian one hybrid assay.

Assay [5] addresses T5, Thyroid hormone receptor alpha (Homo sapiens) (UniProt P10827).
T5 sequence (whole entry): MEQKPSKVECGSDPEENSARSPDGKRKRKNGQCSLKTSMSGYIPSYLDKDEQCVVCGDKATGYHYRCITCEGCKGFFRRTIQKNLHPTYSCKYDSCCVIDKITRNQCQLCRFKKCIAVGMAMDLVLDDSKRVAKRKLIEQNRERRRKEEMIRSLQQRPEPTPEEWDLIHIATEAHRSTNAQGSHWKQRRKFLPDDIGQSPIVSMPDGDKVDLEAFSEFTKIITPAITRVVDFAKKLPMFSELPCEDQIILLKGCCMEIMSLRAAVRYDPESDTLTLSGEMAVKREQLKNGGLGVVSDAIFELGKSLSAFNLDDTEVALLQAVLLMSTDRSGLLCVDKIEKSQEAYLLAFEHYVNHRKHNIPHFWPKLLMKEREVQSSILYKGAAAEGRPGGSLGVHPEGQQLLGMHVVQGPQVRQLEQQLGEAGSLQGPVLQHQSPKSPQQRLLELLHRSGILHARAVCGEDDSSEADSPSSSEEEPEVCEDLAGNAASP
The experiment in a line: Agonist activity at TRalpha-LBD expressed in HEK293 cells assessed as Gal4-DBD interaction by cellular mammalian one hybrid assay relative to thyroid.

In assay [6] the target is T6, Peroxisome proliferator-activated receptor delta (Homo sapiens) (UniProt Q03181).
T6 sequence (whole entry): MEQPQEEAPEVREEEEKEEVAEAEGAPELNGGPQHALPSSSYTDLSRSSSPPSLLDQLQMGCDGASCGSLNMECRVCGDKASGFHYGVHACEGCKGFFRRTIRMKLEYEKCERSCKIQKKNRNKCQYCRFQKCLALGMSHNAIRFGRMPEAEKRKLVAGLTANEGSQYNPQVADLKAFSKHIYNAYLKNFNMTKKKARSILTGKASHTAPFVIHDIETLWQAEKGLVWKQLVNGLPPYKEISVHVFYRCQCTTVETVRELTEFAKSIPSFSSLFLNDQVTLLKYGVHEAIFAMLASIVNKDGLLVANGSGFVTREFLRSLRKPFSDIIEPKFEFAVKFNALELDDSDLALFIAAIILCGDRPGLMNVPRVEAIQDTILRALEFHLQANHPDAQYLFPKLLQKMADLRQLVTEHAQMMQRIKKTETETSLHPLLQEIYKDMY
The experiment in a line: Agonist activity at PPAR-beta/delta-LBD expressed in HEK293 cells assessed as Gal4-DBD interaction by cellular mammalian one hybrid assay relative to control.

Bounds are passed on as bounds.

Consider `CC(C)c1onc(-c2c(Cl)cccc2Cl)c1COc1ccc(N(C)Cc2ccc(C(=O)O)cc2)c(C(F)(F)F)n1`, for which the half-maximal effective concentration (EC50) in assay [1], in assay [2] and in assay [4] was greater than 10 µM throughout. The Efficacy in assay [3], in assay [5] and in assay [6] was 0% in each case.
For `CN(Cc1cccc(C(=O)O)c1)c1ccc(OCc2c(-c3c(Cl)cccc3Cl)noc2C2CC2)nc1C(F)(F)F`, the EC50 in assay [1], in assay [2] and in assay [4] was greater than 10 µM each time. In addition, the Efficacy in assay [3], in assay [5] and in assay [6] was 0% throughout.
`CN(Cc1ccc(C(=O)O)cc1)c1ccc(OCc2c(-c3c(Cl)cccc3Cl)noc2C2CC2)nc1C(F)(F)F`: the EC50 in assay [1], in assay [2] and in assay [4] was greater than 10 µM in each case. Moreover, the Efficacy in assay [3], in assay [5] and in assay [6] was 0% throughout.

Source of the values: ChEMBL document CHEMBL1208782, “Synthesis and pharmacological validation of a novel series of non-steroidal FXR agonists” (Bioorg Med Chem Lett, 2010).
